# Measurements from patent US7582786B2, “Synthetic catalytic free radical scavengers useful as antioxidants for prevention and therapy of disease” (Eukarion Inc., priority 1996, dated 2009).
# “Also recorded” adds a separate entry of the source.
# Tests used:
# [1] = SOD activity, xanthine/xanthine oxidase with NBT as acceptor (Example 2); format: biochemical
# Procedure: Superoxide dismutase (SOD) activity was assayed by following the inhibition of the reduction of an electron acceptor molecule in the presence of the free-radical generating system xanthine/xanthine oxidase (McCord et al. (1973) Superoxide and Superoxide Dismutase in “Oxidases and Related Redox Systems, vol. I, King et al. eds., University Park press, Baltimore, pp. 51-76). The assay mixture consisted of 50 mM sodium phosphate, pH 7.8, 120 μM xanthine, 0.2 units/ml xanthine oxidase, with acceptor molecule and salen manganese compound, as indicated. Assays were conducted at 27±0.2° C. using a water-jacketed cell holder in a Beckman DU7400 spectrophotometer. In most cases, oxidized cytochrome c, at 0.13 mg/ml, was employed as acceptor and its reduction was monitored spectrophotometrically at 550 nm. In some experiments, nitroblue tetrazolium (NBT), at 80 μM, was substituted for cytochrome c as the acceptor. NBT reduction was also monitored at 550 nm. An estimated extinction coefficient for NBT reduction, 20,800 M^−1cm^−1, determined empirically by exhaustive reduction of NBT in the reaction mixture described above, was employed where indicated. This value agreed well with reported extinction coefficients for reduced tetrazolium dyes. […] Conversion of xanthine to urate was calculated using ε290's of […] for urate and 4050 M^−1cm^−1 for xanthine. […]
# [2] = system: Rat brain slices; test: Rat brain slice ischemia/reoxygenation EPSP system; format: cell-based; settings: 50 μM C7
# Procedure: A widely used assay to determine the therapeutic potential of molecules in brain ischemia (stroke) consists of evaluating their ability to prevent irreversible damage induced by an anoxic episode in brain slices maintained under physiological conditions. Rat brain slices were maintained at 35° C. in an interface chamber in an artificial cerebrospinal fluid containing: 124 mM NaCl, 3 mM KCl, 1.25 mM KH2PO4, 3 mM CaCl, 1 mM MgCl2, 26 mM NaHCO3, 10 mM D-glucose, and 2 mM L-ascorbate, continuously gassed with a mixture of O2:CO2 (95:5). The atmosphere of the chamber was also continuously gased with the mixture of O2:CO2 (95:5), except during the-anoxic episode when it was replaced by N2. Axons were electrically stimulated and the evoked excitatory post-synaptic potentials (EPSPs) were recorded using microelectrodes.
# The extent of permanent damage can be quantified by measuring both the amplitude (in mV) and the initial slope (in mV/msec) of the EPSP.
# After 5 minutes of baseline recording, O2 was replaced by N2 for an average of 5 minutes. O2 was then reintroduced and recording was continued for another 50 minutes. […] In contrast, recovery in untreated brain slices was only about 40% of pre-ischemia levels.
# As an additional assessment of efficacy, the percentage of viable slices following repeated ischemic episodes was evaluated. […]
# [3] = system: Hippocampal slices; test: Lactic acid-induced lipid peroxidation in hippocampal slices; format: cell-based, rat; settings: C7 50 μM, 30 mM lactate pH 5.0, 100 minutes
# Procedure: Hippocampal slices (400 μm thick) were obtained from Sprague-Dawley rats (150-200 g) and collected in preoxygenated (95% O2/5% CO2) Krebs-Ringer phosphate medium (pH 7.4) containing NaCl 120 mM, KCl 5 mM, CaCl2 1.3 mM, MgCl2 1.2 mM, NaPhosphate 16 mM (pH 7.4) and glucose 10 mM. After 15 minutes preincubation in a water bath at 35° C. under agitation, the buffer was replaced with the same buffer (control) or a modified buffer (lactate buffer) containing NaCl 90 mM, KCl 5 mM, CaCl2 1.3 mM, MgCl2 1.2 mM, NaPhosphate 16 mM and lactic acid 30 mM (pH 5.0). […] After 100 minutes, slices were collected and homogenized in 0.9 ml of TCA 5%, whereas 0.35 ml of TCA 5% was added to 0.5 ml of the incubation medium. Lipid peroxidation was measured by adding 0.25 ml of a thiobarbituric acid reagent (TBAR) to 0.85 ml of the TCA extracts and incubating the mixture for 60 minutes at 85-93° C. Lipids were then extracted with 2×0.5 ml 1-butanol by vortexing for 10 seconds, then centrifuging at 2,000 rpm for 10 minutes. The absorbance of peroxidized lipids in the alcohol phase was measured in a spectrophotometer at 532 nm. Data were expressed as nmoles of malondialdehyde (MDA) using authentic MDA to establish a standard curve. Proteins were measured from an aliquot of the TCA extracts using the method of Bradford and the final results were calculated as nmoles MDA formed/mg protein.
# [4] = system: mice; test: Mouse model for delayed hypersensitivity (oxazolone, ear edema); format: in vivo; settings: topical, 2.5 micrograms C7 per ear
# Procedure: Mice (“Presensitized” and “Presensitized+C7” groups) were presensitized with oxazolone on the abdomen. One group (“Not presensitized”) received only vehicle on the abdomen at this time. After 7 days, each mouse was challenged with the oxazolone hapten on one ear and given vehicle only on the opposite ear. […] The other two groups received an equivalent volume of 90% acetone. Twenty-four hr after challenge, mice were sacrificed and ear edema was assessed by determining the wet weight/dry weight ratio. (Wet weight was determined by weighing the freshly dissected ear and dry weight was determined after lyophilization to a constant weight.)
# Mice (“Presensitized” and “Presensitized+C7” groups) were presensitized with oxazolone on the abdomen. One group (“Not presensitized”) received only vehicle on the abdomen at this time. After 7 days, each mouse were challenged with the oxazolone hapten on one ear and given vehicle only on the opposite ear. […] The other two groups received an equivalent volume of 90% acetone. Twenty-four hr after challenge, mice were sacrificed and ear edema was assessed by determining the wet weight/dry weight ratio. (Wet weight was determined by weighing the freshly dissected ear and dry weight was determined after lyophilization to a constant weight.)
# [5] = In vitro model for acidosis-induced mucosal injury
compound,measurement,setting,value
[Cl][Mn]1[O]c2ccccc2C=NCCN=Cc2ccccc2[O]1 [Compound C7],NBT reduction,[1]; 0.1 to 6 μM C7,inhibited the rate of NBT reduction in a concentration-dependent manner; also recorded: inhibits NBT reduction
same,inhibition of NBT reduction,[1]; about 1.7 nmoles C7,about 59%
same,percentage of viable slices following repeated ischemic episodes,[2],70%
same,lactate-induced increase in lipid peroxidation,[3],totally abolished; also recorded: protects
same,"protection, ear edema",[4],protective
same,protection against acidosis-induced mucosal injury,[5],protective
